Experiment [1] deals with HUVEC (human umbilical vein endothelial cell line). The experiment is described as follows: Proliferation of HUVEC. It counts as cell-based.
In a further experiment the test system is MKN45 cells. The experiment is described as follows: Xenograft gastric cancer mouse model (MKN45). Format: in vivo.
The subject of a further experiment is E-selectin. Kind of experiment: In vivo E-selectin expression in bone marrow endothelial cells. The conditions noted are these: normal mice, 320 μg/kg, 6 times over 2 weeks, 24 hours after last administration. Also noted: species or system mouse. The method, then:
Changes in expression levels of E-selectin in bone marrow endothelial cells by Chb-M′ administration were examined in vivo. To normal mice, DMSO (control) or Chb-M′ was administered 6 times over 2 weeks (320 μg/kg per administration). Twenty-four hours after the last administration (in a state in which Chb-M′ had been eliminated from the body of the mouse), the femur and tibia were harvested, from them bone marrow hematopoietic cells were removed, and endothelial cells were collected and subjected to FACS analysis. CD45 negative cells (bone marrow cells without bone marrow hematopoietic cells) were gated, and a ratio between CD31 positive cells (vascular endothelial marker-positive) and Lin-negative CD45-negative CD31-positive E-selectin-positive cells (E-selectin-positive bone marrow vascular endothelial cells) was analyzed by FACS.

Another experiment relates to LU99A. The experiment is described as follows: Cell viability, lung adenocarcinoma LU99A. Format: cell-based, human. The conditions noted are these: LU99A (EGFR wild-type p53 wild-type), 48 hours.
For the next experiment, the system named is ABC-1. The experiment is described as follows: Cell viability, lung adenocarcinoma ABC-1. It counts as cell-based, human. The conditions noted are these: ABC-1 (EGFR wild-type p53-mutated), 48 hours.
A further experiment has as its system Mig6. The experiment is described as follows: Western blotting of Mig6 in lung adenocarcinoma cells. Format: cell-based, human. The conditions noted are these: 1 μM, 24 hours. Here is the method:
Cells were washed twice with ice cold phosphate-buffered saline (PBS) and harvested in protein lysis buffer [50 mM Tris (pH 7.4), 100 mM NaCl, 0.1 mM EDTA, 1 mM phenylmethylsulfonyl fluoride, 1 mM β-glycerophosphate, 2.5 mM sodium pyrophosphate, 1 mM Na3VO4, lx protease inhibitor (Roche) and PhosSTOP (Roche)]. Whole cell extracts were separated by SDS-polyacrylamide gel electrophoresis (SDS-PAGE) and electrotransferred onto polyvinylidene difluoride membranes. […] Blots were detected using Chemi-Lumi One Super (nacalai tesque, Inc.) and ChemiDoc™ XRS+ Imager (Bio-Rad Laboratories, Inc.), as recommended by the manufacturers. Protein levels were quantified with Image Lab Software (Bio-Rad Laboratories, Inc.).
To LU99A cells and A549 cells, 1 μM Chb-M′ was administered. After 24 hours, the expression of Mig6 protein was evaluated by the Western blotting method (see the above-described “Immunoblotting”). […]

The subject of experiment [2] is c-kit (KIT D816V mutation and V560G mutation). Kind of experiment: FACS of cell surface c-kit, HMC-1.2 mast cells. Format: cell-based, human. The note with it: HMC-1.2 (mutated c-kit), 10 μM, 18-hour treatment; DMSO 113. An excerpt: Mast cells cause symptoms or diseases such as allergic reaction by receptor-mediated activation. In addition, c-kit signal transduction enhances release of chemical mediators from stimulated mast cells. The effect of the RUNX inhibitor on human mast cells was examined. As human mast cells, a LAD2 cell line (expressing wild-type c-kit) and an HMC-1.2 cell line (expressing mutated c-kit) were used. The HMC-1.2 cell line has KIT D816V mutation and V560G mutation. Wild-type c-kit is a SCF receptor and the cell proliferation is dependent on SCF. Accordingly, regarding the LAD2 cell line, 50 ng/ml of SCF was administered and experiments were performed as described below. The HMC-1.2 cell line has a mutation in c-kit and the cell proliferation is independent of SCF. Accordingly, regarding the HMC-1.2 cell line, SCF was not administered and experiments were performed as described below. As the RUNX inhibitor, Chb-M′ was used. […]
To the LAD2 cell line, 10 μM Chb-M′ was administered. After 3 hours and 18 hours, different antibodies were used for immunostaining of c-kit expressed on the cell surface, and the expression levels were analyzed by FACS (fluorescence-activated cell sorter). […] After 18 hours, different antibodies were used for immunostaining of c-kit expressed on the cell surface, and the expression levels were analyzed by FACS. […]

The test system of experiment [3] is p53-mutated colon cancer cell line HT29. The conditions noted are these: HT29, 72 hours.

Usually IC50 stands for the midpoint of a concentration-inhibition curve. For the molecule `CN(C)CCCNC(=O)c1cc(NC(=O)c2cc(NC(=O)c3cc(NC(=O)c4cc(NC(=O)CCCNC(=O)c5nc(NC(=O)c6nc(NC(=O)c7cc(NC(=O)c8nc(NC(=O)CCNC(=O)CCCc9ccc(N(CCCl)CCCl)cc9)cn8C)cn7C)cn6C)cn5C)cn4C)cn3C)cn2C)cn1C` [Chb-M′], the results for the half-maximal inhibitory concentration (IC50) in experiment [1] and in experiment [3] were not below 50000 nM and 2920 nM, respectively. Also, the “Tumor growth (tumor volume)” value in the experiment on MKN45 cells (MKN45 xenograft, 320 μg/kg IV twice a week, to day 35) is reported as “almost no change in tumor size”. Also, the “Size of gastric cancer (IVIS)” value with MKN45 cells (day 21 after transplantation, after total 4 administrations) was “decreased”; in the experiment with MKN45 cells (day 35 after transplantation, after total 8 administrations), “slightly grew”. Moreover, in the experiment with E-selectin, the “E-selectin expression levels in bone marrow endothelial cells” value is reported as “significantly decreased”. Also, the “IC50 compared with the EGFR inhibitor (gefitinib)” value in the experiment on LU99A and with ABC-1 was “lower IC50 values” in each case. Moreover, the “Expression level of Mig6 protein” value with Mig6 (A549 cells) and with Mig6 (LU99A cells) was “enhanced” throughout. For the same molecule, the “MFI (mean fluorescent intensity) of surface c-kit” value in experiment [2] was determined as 100.

The values above are taken from patent US11235001B2, “RUNX inhibitor” (KYOTO UNIVERSITY, priority 2016, dated 2022).
